Test results from patent US20210330611A1, “THERAPY FOR NEUROLOGICAL DISEASES/DISORDERS” (priority 2020, published 2021).
Where a name gives a salt, the structure may show the parent alone. Read-outs that look alike come from different tables or passages of the source.

What was measured:
[1] = test system: primary rat microglia; test: Cell toxicity (dead cells, size <150 μm2) in LPS assay
[2] = test system: fibrin- and LPS-induced microglia activation; test: cells; format: cell-based, rat
[3] = test system: LPS-induced microglia activation; test: Image-based assay of LPS-induced microglia activation (HTS and dose response); format: cell-based, rat; settings: for inhibition at 10 µM: Rattus norvegicus, Microglia, read-out: LPS % inhibition
[4] = test system: primary rat microglia; test: Cell toxicity (dead cells, size <150 μm2) in coated fibrin (cFib) assay;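 note: share of dead cells sized under 150 µm2 at 10 µM in fibrin-stimulated microglia HTS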
[5] = test system: fibrin-induced microglia activation; test: Image-based assay of fibrin-induced microglia activation (HTS and dose response); format: cell-based, rat; settings: for inhibition at 10 µM: Rattus norvegicus, Microglia, read-out: Fibrin % inhibition
[6] = primary microglia HTS, 10 μM, LPS assay, cell size <150 μm^2 as marker of toxicity
[7] = HTS of 1907 compounds, quadrant by fibrin and LPS inhibition
[8] = primary microglia HTS, 10 μM, LPS-stimulated, cell size >800 μm^2 as marker of activation
[9] = primary microglia HTS, 10 μM, fibrin assay, cell size <150 μm^2 as marker of toxicity
[10] = primary microglia HTS, 10 μM, fibrin-stimulated, cell size >800 μm^2 as marker of activation
[11] = primary microglia HTS, LPS stimulation, decreased size (<150 μm^2) as marker of toxicity
[12] = quadrant by fibrin and LPS inhibition in HTS of 1907 compounds
[13] = 48 h, primary microglia HTS, LPS stimulation, increased cell size (>800 μm^2) as marker of activation
[14] = primary microglia HTS, fibrin stimulation, decreased size (<150 μm^2) as marker of toxicity
[15] = primary microglia HTS, fibrin stimulation, increased cell size (>800 μm^2) as marker of activation
[16] = primary HTS, 10 μM, LPS assay, dead cells size <150 μm2
[17] = primary HTS, 10 μM, LPS-stimulated primary microglia
[18] = primary HTS, 10 μM, fibrin assay, dead cells size <150 μm2
[19] = primary HTS, 10 μM, fibrin-stimulated primary microglia
[20] = primary microglia HTS, LPS stimulation, toxicity = cell size <150 μm2
[21] = 48 h, primary microglia HTS, LPS stimulation, activation = cell size >800 μm2
[22] = primary microglia HTS, fibrin stimulation, toxicity = cell size <150 μm2
[23] = primary microglia HTS, fibrin stimulation, activation = cell size >800 μm2

Compound	LPS % cell toxicity [1, 11]	Quadrant (FIG. 5b) [2, 12]	inhibition at 10 µM [3, 13]	Fibrin % cell toxicity [4, 14]	inhibition at 10 µM [5, 15]	LPS % cell toxicity [1, 16]	Quadrant (FIG. 5b) ([2]; primary HTS, 10 μM)	Fibrin % cell toxicity [4, 18]	other results
OC[C@H]1O[C@H](O[C@]2(CCl)O[C@H](CCl)[C@@H](O)[C@@H]2O)[C@H](O)[C@@H](O)[C@H]1Cl [Sucralose]	–	–	–	–	–	–	–	–	LPS % cell toxicity [1, 6]: 0%; Quadrant (FIG. 5b) [2, 7]: Q4; inhibition at 10 µM [3, 8]: 16%; Fibrin % cell toxicity [4, 9]: 1%; inhibition at 10 µM [5, 10]: 0%
Cc1cc(C)cc(OCC2CNC(=O)O2)c1 (stereo not drawn) [Metaxalone]	0%	Q4	6%	1%	13%	–	–	–	–
Candicidin	–	–	–	–	–	0%	Q4	1%	LPS % inhibition [3, 17]: 31%; Fibrin % inhibition [5, 19]: −41%
O=C1C(O)=C(O)C(=O)C(O)=C1O [Tetraquinone]	–	–	–	–	–	–	–	–	LPS % cell toxicity [1, 6]: 0%; Quadrant (FIG. 5b) [2, 7]: Q4; LPS % inhibition [3, 8]: 15%; Fibrin % cell toxicity [4, 9]: 0%; Fibrin % inhibition [5, 10]: −10%
Viomycin Sulfate	–	–	–	–	–	–	–	–	LPS % cell toxicity [1, 6]: 0%; Quadrant (FIG. 5b) [2, 7]: Q4; LPS % inhibition [3, 8]: 19%; Fibrin % cell toxicity [4, 9]: 0%; Fibrin % inhibition [5, 10]: −7%
Cc1cc(O)c(C(=O)N[C@@H](C(=O)N[C@@H]2C(=O)N3C(C(=O)O)=C(CSc4nnnn4C)CS[C@H]23)c2ccc(O)cc2)cn1 [Cefpiramide]	–	–	–	–	–	0%	Q4	1%	inhibition at 10 µM [3, 17]: 20%; inhibition at 10 µM [5, 19]: 12%
Cc1ccc(S(=O)(=O)[N-]Cl)cc1.[Na+] [Chloramine-t]	–	–	–	–	–	0%	Q4	1%	LPS % inhibition [3, 17]: 11%; Fibrin % inhibition [5, 19]: 4%
CC(C)(O)C(Cl)(Cl)Cl [Chlorobutanol]	–	–	–	–	–	0%	Q4	1%	inhibition at 10 µM [3, 17]: 3%; inhibition at 10 µM [5, 19]: -20%
CC(C)CCC[C@@H](C)[C@H]1CC[C@H]2[C@@H]3CC=C4C[C@@H](O)CC[C@]4(C)[C@H]3CC[C@]12C [Cholesterol]	–	–	–	–	–	0%	Q4	0%	inhibition at 10 µM [3, 17]: 9%; inhibition at 10 µM [5, 19]: 4%
C#C[C@]1(OC(C)=O)CC[C@H]2[C@@H]3CCC4=CC(=NO)CC[C@@H]4[C@H]3CC[C@@]21CC (mixture of isomers) [Norgestimate]	0%	Q4	12%	0%	-5%	–	–	–	–
NC(=O)c1cc[n+](CC2=C(C(=O)[O-])N3C(=O)[C@@H](NC(=O)Cc4cccs4)[C@H]3SC2)cc1 [Cefalonium]	–	–	–	–	–	0%	Q4	1%	inhibition at 10 µM [3, 17]: 11%; inhibition at 10 µM [5, 19]: 9%
COC(=O)C1=C(C)NC(C)=C(C(=O)OCCN(C)Cc2ccccc2)C1c1cccc([N+](=O)[O-])c1 (stereo not drawn) [Nicardipine]	0%	Q4	12%	0%	11%	–	–	–	–
O=C(O)CCNC(=O)c1ccccc1 [Betamipron]	–	–	–	–	–	0%	Q4	1%	inhibition at 10 µM [3, 17]: 14%; inhibition at 10 µM [5, 19]: -6%
COc1c2occc2c(OC)c2c(=O)cc(C)oc12 [Khellin]	–	Q4	–	–	–	–	–	–	LPS % cell toxicity [1, 20]: 0%; inhibition at 10 µM [3, 21]: 5%; Fibrin % cell toxicity [4, 22]: 0%; inhibition at 10 µM [5, 23]: -16%
CC(C)COC(=O)c1ccc(N)cc1 [Isobutamben]	–	Q4	–	–	–	–	–	–	LPS % cell toxicity [1, 20]: 0%; inhibition at 10 µM [3, 21]: -1%; Fibrin % cell toxicity [4, 22]: 1%; inhibition at 10 µM [5, 23]: -5%
N=C(NCCCCCCNC(=N)NC(=N)Nc1ccc(Cl)cc1)NC(=N)Nc1ccc(Cl)cc1	8%	Q1	–	1%	–	–	–	–	LPS % inhibition ([3]; primary microglia HTS, LPS stimulation, increased cell size (>800 μm^2) as marker of activation): 69%; Fibrin % inhibition [5, 15]: 15%
NCCC(O)(P(=O)(O)O)P(=O)(O)O [Pamidronate]	0%	Q4	-5%	1%	0%	–	–	–	–

Compound	LPS % cell toxicity [1, 11]	Quadrant (FIG. 5b) [2, 12]	inhibition at 10 µM [3, 13]	Fibrin % cell toxicity [4, 14]	inhibition at 10 µM [5, 15]	LPS % cell toxicity [1, 16]	Quadrant (FIG. 5b) ([2]; primary HTS, 10 μM)	Fibrin % cell toxicity [4, 18]	other results
COc1ccc2cc(CCC(C)=O)ccc2c1 [Nabumetone]	0%	Q4	15%	1%	-13%	–	–	–	–
CC1(C)OC(=O)C(OCC2CC2)=C1c1ccc(S(C)(=O)=O)cc1 [Firocoxib]	–	Q4	–	–	–	–	–	–	LPS % cell toxicity [1, 20]: 1%; inhibition at 10 µM [3, 21]: 11%; Fibrin % cell toxicity [4, 22]: 1%; inhibition at 10 µM [5, 23]: -10%
CCn1nc(C(=O)O)c(=O)c2cc3c(cc21)OCO3 [Cinoxacin]	12%	Q2	115%	50%	117%	–	–	–	–
CCOC(=O)C1=C[C@@H](OC(CC)CC)[C@H](NC(C)=O)[C@@H](N)C1 [Oseltamivir]	1%	Q4	26%	1%	–	–	–	–	Fibrin % inhibition [5, 15]: −28%
Cc1ccnc2c1NC(=O)c1cccnc1N2C1CC1 [Nevirapine]	0%	Q4	15%	0%	3%	–	–	–	–
C[C@@H]1C[C@H]2[C@@H]3CCC4=CC(=O)C=C[C@]4(C)[C@@]3(F)[C@@H](O)C[C@]2(C)[C@H]1C(=O)CO [Desoximetasone]	3%	Q2	91%	5%	101%	–	–	–	–
COC(=O)[C@@H]1[C@H]2C[C@H]3c4[nH]c5ccccc5c4CCN3C[C@@H]2CC[C@@H]1O [Yohimbine Hydrochloride]	–	–	–	–	–	–	–	–	LPS % cell toxicity [1, 6]: 1%; Quadrant (FIG. 5b) [2, 7]: Q4; LPS % inhibition [3, 8]: 19%; Fibrin % cell toxicity [4, 9]: 1%; Fibrin % inhibition [5, 10]: −8%
CC#CCC(C)[C@H](O)/C=C/[C@@H]1[C@H]2C/C(=C/CCCC(=O)O)C[C@H]2C[C@H]1O (stereo partly drawn) [Iloprost]	–	Q4	–	–	–	–	–	–	LPS % cell toxicity [1, 20]: 0%; inhibition at 10 µM [3, 21]: -1%; Fibrin % cell toxicity [4, 22]: 1%; inhibition at 10 µM [5, 23]: 23%
CCCCCCCC/C=C\CCCCCCCC(=O)O [Oleic Acid]	1%	Q4	25%	1%	23%	–	–	–	–
CN1CCN(C(c2ccccc2)c2ccc(Cl)cc2)CC1 (stereo not drawn) [Chlorcyclizine]	–	–	–	–	–	0%	Q4	1%	inhibition at 10 µM [3, 17]: 6%; inhibition at 10 µM [5, 19]: 9%
CCN(CC)C(=O)c1cccnc1 [Nikethamide]	0%	Q4	-4%	0%	12%	–	–	–	–
CO[C@@]1(NC(=O)C2SC(=C(C(N)=O)C(=O)O)S2)C(=O)N2C(C(=O)O)=C(CSc3nnnn3C)CS[C@@H]21 (stereo partly drawn) [Cefotetan]	–	–	–	–	–	0%	Q4	0%	inhibition at 10 µM [3, 17]: -5%; inhibition at 10 µM [5, 19]: -11%
CN1C(=O)CC[C@H]1c1cccnc1 [Cotinine]	–	–	–	–	–	1%	Q4	1%	inhibition at 10 µM [3, 17]: 6%; inhibition at 10 µM [5, 19]: -39%
CC(=O)Nc1ccc(S(=O)(=O)Nc2ccc([N+](=O)[O-])cc2)cc1 [Sulfanitran]	–	–	–	–	–	–	–	–	LPS % cell toxicity [1, 6]: 0%; Quadrant (FIG. 5b) [2, 7]: Q4; inhibition at 10 µM [3, 8]: 18%; Fibrin % cell toxicity [4, 9]: 1%; inhibition at 10 µM [5, 10]: 10%
Cc1c(Nc2ncccc2C(=O)O)cccc1C(F)(F)F [Flunixin Meglumine]	–	Q4	–	–	–	–	–	–	LPS % cell toxicity [1, 20]: 0%; inhibition at 10 µM [3, 21]: 8%; Fibrin % cell toxicity [4, 22]: 1%; inhibition at 10 µM [5, 23]: -6%
CC(=O)OCC(=O)[C@@]1(O)CC[C@H]2[C@@H]3CCC4=CC(=O)C=C[C@]4(C)[C@@]3(F)[C@@H](O)C[C@@]21C [Isoflupredone Acetate]	2%	Q2	90%	3%	106%	–	–	–	–
